The values below come from patent US12679878B2, “CRF2 receptor agonists and their use in therapy” (SANOFI, priority 2020, dated 2026).

Starred links: 1 amine or outer side, 2 acyl side, 3 side chain; linkers in the order of their positions; H or OH if unused. Non-standard residues stand in square brackets, D forms with d. Residues, ends and D or L forms follow the SMILES beside them. Groups on a side chain read outwards from the residue. *: point of attachment. C18 diacid = O=C(O)CCCCCCCCCCCCCCCCC(=O)*; γGlu = O=C(O)[C@H](CCC(=O)[*:2])N[*:1]; AEEA = NCCOCCOCC(=O)O; Aib = CC(C)(N)C(=O)O

As usually defined, the EC50 is the concentration needed to bring the measured effect to its halfway point.

The experiment concerns the target T1, human CRF2α receptor (Homo sapiens, UniProt Q13324).
T1 construct: expressed in transfected cells; host or cells: TeloHEAC
T1 sequence (Q13324 1-411): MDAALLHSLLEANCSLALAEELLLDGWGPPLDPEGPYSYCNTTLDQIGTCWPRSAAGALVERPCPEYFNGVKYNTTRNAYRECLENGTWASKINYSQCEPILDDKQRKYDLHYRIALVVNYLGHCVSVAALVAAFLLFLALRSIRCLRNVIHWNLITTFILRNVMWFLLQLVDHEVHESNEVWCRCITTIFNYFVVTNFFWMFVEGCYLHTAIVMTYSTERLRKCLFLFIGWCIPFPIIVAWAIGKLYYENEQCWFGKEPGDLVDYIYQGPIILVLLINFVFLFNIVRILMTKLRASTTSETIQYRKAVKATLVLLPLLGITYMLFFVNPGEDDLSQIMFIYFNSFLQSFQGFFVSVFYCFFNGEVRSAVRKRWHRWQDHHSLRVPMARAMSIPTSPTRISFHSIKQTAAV
Briefly: cAMP agonism at human CRF2 α receptor in TeloHEAC cells (Example 7). It is filed as cell-based. Particulars: cAMP HTRF, TeloHEAC cells stably expressing human CRF2 α, 0% HSA; read-out: EC50 [nM], 0% HSA. The method, boiled down:
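Percent activation was referenced to 1000 nM UCN2 (100%), and EC50 values taken as concentrations giving half of maximal response. The read-out was a homogeneous time-resolved fluorescence cAMP kit, fluorescence ratio 665/620 nm. Thawed cells (2000/well) saw compound for 30 min at RT in buffer with 2 mM IBMX and 0%/0.1% HSA.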
On the technique in general: Time-resolved FRET reads energy transfer from a long-lived donor to a nearby acceptor.

`CC[C@H](C)[C@H](N)C(=O)N[C@H](C(=O)N[C@@H](CC(C)C)C(=O)N[C@@H](CO)C(=O)N[C@@H](CC(C)C)C(=O)N[C@@H](CC(=O)O)C(=O)N[C@H](C(=O)N1CCC[C@H]1C(=O)N[C@H](C(=O)N[C@@H](CCCCN)C(=O)N[C@@H](CC(C)C)C(=O)N[C@@H](CCCCNC(=O)COCCOCCNC(=O)COCCOCCNC(=O)CC[C@H](NC(=O)CCCCCCCCCCCCCCCCC(=O)O)C(=O)O)C(=O)N[C@@H](CCC(N)=O)C(=O)N[C@H](C(=O)N[C@@H](CC(C)C)C(=O)N[C@@H](CC(C)C)C(=O)N[C@@H](CCC(=O)O)C(=O)N[C@@H](CCC(N)=O)C(=O)N[C@@H](CCC(=O)O)C(=O)N[C@@H](CCCNC(=N)N)C(=O)N[C@@H](CCC(N)=O)C(=O)N[C@@H](CCCNC(=N)N)C(=O)NC(C)(C)C(=O)N[C@@H](CCC(=O)O)C(=O)N[C@@H](CCCNC(=N)N)C(=O)N[C@@H](CCC(N)=O)C(=O)N[C@@H](CCC(N)=O)C(=O)N[C@@H](C)C(=O)N[C@@H](CCC(=O)O)C(=O)N[C@H](C(=O)N[C@@H](CC(N)=O)C(=O)N[C@H](C(=O)N[C@@H](CCC(N)=O)C(=O)N[C@H](C(=O)N[C@@H](CC(C)C)C(=O)N[C@@H](C)C(=O)N[C@@H](CCC(N)=O)C(=O)N[C@H](C(N)=O)C(C)C)[C@@H](C)CC)C(C)C)[C@@H](C)O)[C@@H](C)CC)[C@@H](C)CC)C(C)C)C(C)C` [compound 48] (H-IVLSLDVPIKLK([AEEA-AEEA-γGlu-C18 diacid])QILLEQERQR[Aib]ERQQAETNVQILAQV-NH2; N-terminus assumed): the half-maximal effective concentration (EC50) was determined as 2.2 nM.

Regarding `CC[C@H](C)[C@H](N)C(=O)N[C@H](C(=O)N[C@@H](CC(C)C)C(=O)N[C@@H](CO)C(=O)N[C@@H](CC(C)C)C(=O)N[C@@H](CC(=O)O)C(=O)N[C@H](C(=O)N1CCC[C@H]1C(=O)N[C@H](C(=O)N[C@@H](CCCCN)C(=O)N[C@@H](CC(C)C)C(=O)N[C@@H](CCCCNC(=O)COCCOCCNC(=O)COCCOCCNC(=O)CC[C@H](NC(=O)CCCCCCCCCCCCCCCCC(=O)O)C(=O)O)C(=O)N[C@@H](CCC(N)=O)C(=O)N[C@H](C(=O)N[C@@H](CC(C)C)C(=O)N[C@@H](CC(C)C)C(=O)N[C@@H](CCC(=O)O)C(=O)N[C@@H](CCC(N)=O)C(=O)N[C@@H](CCC(=O)O)C(=O)N[C@@H](CCCNC(=N)N)C(=O)N[C@@H](CCC(N)=O)C(=O)N[C@@H](CCCNC(=N)N)C(=O)NC(C)(C)C(=O)N[C@@H](CCC(=O)O)C(=O)N[C@@H](CCCNC(=N)N)C(=O)N[C@@H](CCC(N)=O)C(=O)N[C@@H](CCC(N)=O)C(=O)N[C@@H](C)C(=O)N[C@@H](CCC(=O)O)C(=O)N[C@H](C(=O)N[C@@H](CC(N)=O)C(=O)N[C@H](C(=O)N[C@@H](CCCNC(=N)N)C(=O)N[C@H](C(=O)N[C@@H](CC(C)C)C(=O)N[C@@H](CCC(=O)O)C(=O)N[C@@H](CCCNC(=N)N)C(=O)N[C@H](C(N)=O)C(C)C)[C@@H](C)CC)C(C)C)[C@@H](C)O)[C@@H](C)CC)[C@@H](C)CC)C(C)C)C(C)C` [compound 49] (H-IVLSLDVPIKLK([AEEA-AEEA-γGlu-C18 diacid])QILLEQERQR[Aib]ERQQAETNVRILERV-NH2; N-terminus assumed), the concentration giving a half-maximal response (EC50) is 12.7 nM.

Turning to `CC[C@H](C)[C@H](N)C(=O)N[C@H](C(=O)N[C@@H](CC(C)C)C(=O)N[C@@H](CO)C(=O)N[C@@H](CC(C)C)C(=O)N[C@@H](CC(=O)O)C(=O)N[C@H](C(=O)N1CCC[C@H]1C(=O)N[C@H](C(=O)N[C@@H](CCCCN)C(=O)N[C@@H](CC(C)C)C(=O)N[C@@H](CCCCNC(=O)COCCOCCNC(=O)COCCOCCNC(=O)CC[C@H](NC(=O)CCCCCCCCCCCCCCCCC(=O)O)C(=O)O)C(=O)N[C@@H](CCC(N)=O)C(=O)N[C@H](C(=O)N[C@@H](CC(C)C)C(=O)N[C@@H](CC(C)C)C(=O)N[C@@H](CCCCN)C(=O)N[C@@H](CCC(N)=O)C(=O)N[C@@H](CCC(=O)O)C(=O)N[C@@H](CCCNC(=N)N)C(=O)N[C@@H](CCC(N)=O)C(=O)N[C@@H](CCCNC(=N)N)C(=O)NC(C)(C)C(=O)N[C@@H](CCC(=O)O)C(=O)N[C@@H](CCCNC(=N)N)C(=O)N[C@@H](CCC(N)=O)C(=O)N[C@@H](CCC(N)=O)C(=O)N[C@@H](C)C(=O)N[C@@H](CCC(=O)O)C(=O)N[C@H](C(=O)N[C@@H](CC(N)=O)C(=O)N[C@H](C(=O)N[C@@H](CCCNC(=N)N)C(=O)N[C@H](C(=O)N[C@@H](CC(C)C)C(=O)N[C@@H](CCC(=O)O)C(=O)N[C@@H](CCCNC(=N)N)C(=O)N[C@H](C(N)=O)C(C)C)[C@@H](C)CC)C(C)C)[C@@H](C)O)[C@@H](C)CC)[C@@H](C)O)C(C)C)C(C)C` [compound 50] (H-IVLSLDVPTKLK([AEEA-AEEA-γGlu-C18 diacid])QILLKQERQR[Aib]ERQQAETNVRILERV-NH2; N-terminus assumed), the 50% effective concentration (EC50) stood at 17.2 nM.

`CC[C@H](C)[C@H](NC(=O)[C@H](CCC(N)=O)NC(=O)[C@H](CCCCNC(=O)COCCOCCNC(=O)COCCOCCNC(=O)CC[C@H](NC(=O)CCCCCCCCCCCCCCCCC(=O)O)C(=O)O)NC(=O)[C@@H](NC(=O)[C@H](CCCCN)NC(=O)[C@@H](NC(=O)[C@@H]1CCCN1C(=O)[C@@H](NC(=O)[C@H](CC(=O)O)NC(=O)[C@H](CC(C)C)NC(=O)[C@H](CO)NC(=O)[C@H](CC(C)C)NC(=O)[C@@H](NC(=O)[C@@H](N)Cc1ccccc1)[C@@H](C)O)C(C)C)[C@@H](C)O)[C@@H](C)CC)C(=O)N[C@@H](CC(C)C)C(=O)N[C@@H](CC(C)C)C(=O)N[C@@H](CCCCN)C(=O)N[C@@H](CCC(N)=O)C(=O)N[C@@H](CCC(N)=O)C(=O)N[C@@H](CCCCN)C(=O)N[C@@H](CCC(N)=O)C(=O)N[C@@H](CCCCN)C(=O)N[C@@H](CCCCN)C(=O)N[C@@H](CCC(=O)O)C(=O)N[C@@H](CCCNC(=N)N)C(=O)N[C@@H](CCC(N)=O)C(=O)N[C@@H](CCCCN)C(=O)N[C@@H](C)C(=O)N[C@@H](CCC(=O)O)C(=O)N[C@H](C(=O)N[C@@H](CC(N)=O)C(=O)N[C@H](C(=O)N[C@@H](CCC(N)=O)C(=O)N[C@@H](CC(C)C)C(=O)N[C@@H](CC(C)C)C(=O)N[C@@H](CCC(=O)O)C(=O)N[C@@H](CCCNC(=N)N)C(=O)N[C@H](C(N)=O)C(C)C)C(C)C)[C@@H](C)O` [compound 55] (H-FTLSLDVPTKIK([AEEA-AEEA-γGlu-C18 diacid])QILLKQQKQKKERQKAETNVQLLERV-NH2; N-terminus assumed): the EC50 amounted to 48.5 nM.

As for `CC[C@H](C)[C@H](NC(=O)[C@H](CCC(N)=O)NC(=O)[C@H](CCCCNC(=O)COCCOCCNC(=O)COCCOCCNC(=O)CC[C@H](NC(=O)CCCCCCCCCCCCCCCCC(=O)O)C(=O)O)NC(=O)[C@H](CC(C)C)NC(=O)CNC(=O)[C@@H](NC(=O)[C@@H]1CCCN1C(=O)[C@@H](NC(=O)[C@H](CC(=O)O)NC(=O)[C@H](CC(C)C)NC(=O)[C@H](CO)NC(=O)[C@H](CC(C)C)NC(=O)[C@@H](NC(=O)[C@@H](N)Cc1ccccc1)[C@@H](C)O)C(C)C)[C@@H](C)CC)C(=O)N[C@@H](CC(C)C)C(=O)N[C@@H](CC(C)C)C(=O)N[C@@H](CCCCN)C(=O)N[C@@H](CCC(N)=O)C(=O)N[C@@H](CCC(N)=O)C(=O)N[C@@H](CCCCN)C(=O)N[C@@H](CCC(N)=O)C(=O)N[C@@H](CCCCN)C(=O)N[C@@H](CCCCN)C(=O)N[C@@H](CCC(=O)O)C(=O)N[C@@H](CCCNC(=N)N)C(=O)N[C@@H](CCC(N)=O)C(=O)N[C@@H](CCC(N)=O)C(=O)N[C@@H](C)C(=O)N[C@@H](CCC(=O)O)C(=O)N[C@H](C(=O)N[C@@H](CC(N)=O)C(=O)N[C@H](C(=O)N[C@@H](CCC(N)=O)C(=O)N[C@@H](CC(C)C)C(=O)N[C@@H](CC(C)C)C(=O)N[C@@H](CCC(=O)O)C(=O)N[C@@H](CCCNC(=N)N)C(=O)N[C@H](C(N)=O)C(C)C)C(C)C)[C@@H](C)O` [compound 56] (H-FTLSLDVPIGLK([AEEA-AEEA-γGlu-C18 diacid])QILLKQQKQKKERQQAETNVQLLERV-NH2), the EC50 turned out to be 22.9 nM.
